Literature values in patent publication US20190167601A1, “APPARATUS AND METHOD FOR ZERO ORDER DRUG DELIVERY FROM MULTILAYER AMPHIPHILIC CO-NETWORKS” (The University of Akron, priority 2016, published 2019).
Counter-ions that a name gives are not always drawn.

Compound | maximum drug solubility in water [µg/mL]
COc1c(N2C[C@@H]3CCCN[C@@H]3C2)c(F)cc2c(=O)c(C(=O)O)cn(C3CC3)c12 [Moxifloxacin Hydrochloride] | 168
CC(C)OC(=O)CCC/C=C\C[C@@H]1[C@@H](CC[C@@H](O)CCc2ccccc2)[C@H](O)C[C@@H]1O [Latanoprost] | 8000
